Results from patent publication US20110217391A1, “MATRIX METALLOPROTEASE (MMP) PRODUCTION INHIBITOR” (FUJIFILM CORPORATION, priority 2010, published 2011).
Read-outs that look alike come from different tables or passages of the source.

Key:
matrix metalloprotease 9 = experiment: Suppression of production of matrix metalloprotease 9 on epidermis, TGF β1 or β2 induction, ELISA of culture supernatant; assay type: cell-based, human; conditions: keratinocytes, TGF β1 or β2 5 ng/ml, 0.45 μg/ml, 48 hours
Experimental: Thereafter, the medium was exchanged with a test medium which had been prepared by adding TGF (transforming growth factor) β1 or β2 which is known to be released as a matrix metalloprotease 9 production promoting factor from cells upon UV irradiation, to a 1% (v/v) FBS-containing MEM medium to a final concentration of 5 ng/ml, so as to produce a matrix metalloprotease 9 induction test system. […] Specifically, the concentration of a grape extract was set at 100 μg/ml, and the concentration of a Salacia plant extract (the present invention) was set at 100 μg/ml. These test substances were each added to a test medium, and the medium was then exchanged with a fresh one. Thereafter, culture was carried out for 48 hours. After completion of the culture, a culture supernatant was recovered. The recovered supernatant was assayed according to the ELISA method with Matrix Metalloprotease-9, Human, Assay (GE Healthcare, RPN2614). Measurement was carried out in accordance with protocols provided by the distributer, and the value at a wavelength of 630 nm was measured using a wavelength-tunable microplate reader, Sunrise Rainbow Thermo (SUNRISE) and was then quantified. […]

[1] = test system: Pellicle-derived human normal keratinocytes; conditions: 48 h
Experimental: Pellicle-derived human normal keratinocytes were inoculated into a 10% (v/v) FBS-containing MEM medium on a 12-well culture plate, at a cell density of 1.9×10^4 cells/well. Thereafter, the cells were pre-cultured for 24 hours according to an ordinary method. […] After completion of the culture, the cells were washed with PBS, and a survival test was then carried out according to a common method using MTT. Specifically, a 0.5 mg/mL MTT solution was added to the culture plate, resulting in a concentration of 500 μL/well, and it was then incubated in an incubator for 2 hours. Thereafter, 1.5 mL of dimethyl sulfoxide was added thereto, and the absorbance at a wavelength of 570 nm was then measured. The obtained absorbance was used as an indicator for the number of surviving cells. The number of surviving cells obtained in the case of not adding an evaluation sample was defined as 100, and the cell survival percentage (%) obtained in the case of adding an evaluation sample was obtained.

C[C@H]1[C@H](C)CC[C@]2(C(=O)O)CC[C@]3(C)C(=CC[C@@H]4[C@@]5(C)CC[C@H](O)C(C)(C)[C@@H]5CC[C@]43C)[C@H]12 [ursolic acid]
effect of suppressing the production of matrix metalloprotease 9 (MMP9 protein expression level) (matrix metalloprotease 9): did not have the effect of suppressing the production of matrix metalloprotease 9
cell survival percentage ([1]; 0.45 μg/ml): ≥ 70%

CC1=C(/C=C/C(C)=C/C=C/C(C)=C/C(=O)O)C(C)(C)CCC1 [retinoic acid]
cell survival percentage ([1]; 0.15 μg/ml): ≥ 70%
